The test system of one data set is Porcine Liver Esterase. The data set can be described thus: PLE hydrolysis experiment (enzymatic deprotection of POM-protected peptides). Type of data set: in vitro ADME. As to conditions: pig, 200 μM peptide, pH 7.4, 37° C. The method, then: Hydrolysis assays were run on five POM-protected peptides (see below):
(§1) There are three types of hydrolysis experiment performed in these peptides.
Type 1: 200 μM peptide with Porcine Liver Esterase (58 units, according the protocol presented in Srivastva, D. N.; Farquhar, D. Bioorg. Chem. 1984, 12, 118).
PLE hydrolysis experiment. 0.05M potassium phosphate buffer (pH 7.4) was placed in centrifuge tube. A solution of selected peptide in methanol was added to the buffer. Final concentration of the peptide was 200 μM, MeOH was less than 1% in solution. Take 1 mL of the above solution, then added Pig liver esterase (57.6 units). The reaction mixture was then incubated at 37° C. by shaking. At different time point, certain amount (50 μL) of reaction mixture was taken and placed in a separate Eppendorf tube containing 1 equiv. volume MeCN (50 μL). After work-up, the hydrolysis product was monitored by LC-MS.

Data set [1] is described as follows: Culture medium hydrolysis experiment. Type of data set: in vitro ADME. Particulars: for half-life at 1 μM: 1 μM peptide in culture medium. The method, then: as §1
Type 2: 1 μM peptide in culture medium and 200 μM peptide in culture medium.
Culture medium hydrolysis experiment. Culture medium was placed in centrifuge tube. A solution of selected peptide in methanol was added to the culture medium. Final concentration of the peptide was 1 μM or 200 μM, MeOH was less than 1% in solution. The reaction mixture was then incubated at 37° C. by shaking. At different time point, certain amount (50 μL) of reaction mixture was taken and placed in a separate Eppendorf tube containing 1 equiv. volume MeCN (50 μL). After work-up, the hydrolysis product was monitored by LC-MS.

Data set [2] can be described thus: Cell lysate hydrolysis experiment. It counts as in vitro ADME. Particulars: 1 μM peptide in cell lysate, 37° C.; read-out: Half-life of peptides in cell lysate. The method, then:
as §1
Type 3: 1 μM peptide in cell lysate.
Cell lysate hydrolysis experiment. Cell lysate was placed in 96-well plate. A solution of selected peptide in DMSO was added to the cell lysate. Final concentration of the peptide was 1 μM, DMSO was less than 1% in solution. The reaction mixture was then incubated at 37° C. by shaking. At different time point, 1 equiv. by volume of MeCN was added to well to quench the reaction. After work-up, the hydrolysis product was monitored by LC-MS.

The next data set deals with HeLa cells. Type of data set: cell-based. The method, then: Cell culture, analysis of the cell proliferation and aberrant mitotic population, and indirect immunofluorescence microscopy: HeLa cervical carcinoma cell line CCL2, 293A and 293T cells were cultured as recommended by the American Type Culture Collection (Manassas, Va.), were cultured as recommended by American Type Culture Collection (Manassas, Va.). To prepare mitotic 293A cells expressing HA-EGFP-Plk1, cells were infected with adenovirus expressing HA-EGFP-Plk1 and arrested with 200 ng/ml of nocodazole for 16 h. To analyze the effect of the indicated compounds in cultured cells, logarithmically growing HeLa cells were treated with 200 μM of the indicated compounds for 24 h (a sufficient amount of time to enrich mitotically-arrested cells), treated with Hoechst 33342 for […], and then fixed with 4% paraformaldehyde.
Cell-based growth inhibition assays were performed.

Data set [3] has as its target T1, Plk1 PBD (cellular lysates expressing HA-EGFP-Plk1) (Homo sapiens, UniProt P53350).
T1 construct: cell lysates containing full-length Plk1 were incubated with test peptides; expressed in transfected cells; host or cells: 293A cells infected with adenovirus expressing HA-EGFP-Plk1, arrested with nocodazole
In words: ELISA-based PBD-binding inhibition assay. As to conditions: immobilized biotinylated p-T78 peptide, lysates with full-length Plk1. For orientation: An ELISA detects its analyte on a solid surface through an enzyme-linked reagent.
Experimental: An ELISA-based PBD-binding inhibition assay was carried out using an immobilized biotinylated 9-mer p-T78 peptide {Biotin-C—(CH2)6-(CH2)6-DPPLHSpTAI-NH2} and the cellular lysates expressing HA-EGFP-Plk1.
A biotinylated p-T78 peptide was first diluted with 1× coating solution (KPL Inc., Gaithersburg, Md.) to the final concentration of 0.3 μM, and then 100 μl of the resulting solution was immobilized onto a 96-well streptavidin-coated plate (Nalgene Nunc, Rochester, N.Y.). The wells were washed once with PBS plus 0.05% Tween20 (PBST), and incubated with 200 μl of PBS plus 1% BSA (blocking buffer) for 1 h to prevent non-specific binding. […] Following the incubation, ELISA plates were washed 4 times with PBST. To detect bound HA-EGFP-Plk1, the plates were probed for 2 h with 100 μl/well of anti-HA antibody at a concentration of 0.5 μg/ml in blocking buffer and then washed 5 times. The plates were further probed for 1 h with 100 μl/well of HRP-conjugated secondary antibody (GE Healthcare, Piscataway, N.J.) at a 1:1,000 dilution in blocking buffer. The plates were washed 5 times with PBST and incubated with 100 μl/well of 3,3′,5,5′-tetramethylbenzidine (TMB) solution (Sigma, St. Louis, Mo.) as a substrate until a desired absorbance was reached. […] The optical density (O.D.) was measured at 450 nm by using an ELISA plate reader (Molecular Devices, Sunnyvale, Calif.).

[4] abbreviates: 37° C., read-out: Half-life of peptides in culture medium.

SMILES strings stand for the structures. Numbered stars: 1 amine (or outer) side, 2 acyl side, 3 side chain; on linkers, the order of the positions; unused ones are H or OH. Square brackets hold non-standard residues; d marks the D form. Peptide text beside a SMILES is read from it. X1 = C[C@@H](OP(=O)(OCOC(=O)C(C)(C)C)OCOC(=O)C(C)(C)C)[C@H](N[*:1])C(=O)[*:2]; X2 = C[C@@H](CP(=O)(OCOC(=O)C(C)(C)C)OCOC(=O)C(C)(C)C)[C@H](N[*:1])C(=O)[*:2]; His(π-(CH2)8Ph) = N[C@@H](Cc1cncn1CCCCCCCCc1ccccc1)C(=O)O

T1 sequence (P53350 whole entry): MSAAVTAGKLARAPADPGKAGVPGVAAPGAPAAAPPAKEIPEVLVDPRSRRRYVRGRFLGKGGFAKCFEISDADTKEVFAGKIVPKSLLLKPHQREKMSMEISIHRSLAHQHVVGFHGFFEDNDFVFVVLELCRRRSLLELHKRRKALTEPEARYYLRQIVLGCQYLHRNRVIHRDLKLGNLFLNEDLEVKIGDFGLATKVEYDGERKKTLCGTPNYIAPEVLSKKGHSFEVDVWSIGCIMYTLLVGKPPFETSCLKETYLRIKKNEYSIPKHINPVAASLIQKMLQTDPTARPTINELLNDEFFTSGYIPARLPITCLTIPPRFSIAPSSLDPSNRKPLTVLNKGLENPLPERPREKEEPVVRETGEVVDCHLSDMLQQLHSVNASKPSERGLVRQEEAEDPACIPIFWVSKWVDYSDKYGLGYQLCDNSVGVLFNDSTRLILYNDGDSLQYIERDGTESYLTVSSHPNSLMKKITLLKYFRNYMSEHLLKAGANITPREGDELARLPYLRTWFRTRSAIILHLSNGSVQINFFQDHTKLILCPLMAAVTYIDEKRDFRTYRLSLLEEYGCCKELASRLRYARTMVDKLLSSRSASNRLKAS

Take `CC(=O)N1CCC[C@H]1C(=O)N[C@@H](CC(C)C)C(=O)N[C@@H](Cc1c[nH]cn1)C(=O)N[C@@H](CO)C(=O)N[C@H](C(N)=O)[C@@H](C)OP(=O)(OCOC(=O)C(C)(C)C)OCOC(=O)C(C)(C)C` [Compound A1, Ac-Pro-Leu-His-Ser-Thr(PO2POM2)-amide] (Ac-PLHS[X1]-NH2): the half-life at 200 μM in the data set with Porcine Liver Esterase amounted to 0.113 h.

As for `CC(=O)N1CCC[C@H]1C(=O)N[C@@H](CC(C)C)C(=O)N[C@@H](Cc1c[nH]cn1)C(=O)N[C@@H](CO)C(=O)N[C@H](C(N)=O)[C@@H](C)CP(=O)(OCOC(=O)C(C)(C)C)OCOC(=O)C(C)(C)C` [Compound A3] (Ac-PLHS[X2]-NH2), the half-life at 200 μM in the data set with Porcine Liver Esterase was found to be 0.085 h.

With `CC(=O)N1CCC[C@H]1C(=O)N[C@@H](CC(C)C)C(=O)N[C@@H](Cc1cncn1CCCCCCCCc1ccccc1)C(=O)N[C@@H](CO)C(=O)N[C@H](C(N)=O)[C@@H](C)OP(=O)(OCOC(=O)C(C)(C)C)OCOC(=O)C(C)(C)C` [Compound A5] (Ac-PL[His(π-(CH2)8Ph)]S[X1]-NH2), the half-life at 1 μM is 0.537 h in data set [1] (setting [4]) and 2.32 h in data set [2]. Moreover, the half-life at 200 μM in data set [1] (200 μM peptide in culture medium, 37° C., read-out: Half-life of peptides in culture medium) was 7.43 h; with Porcine Liver Esterase, 1.9 h.

As for `CC(=O)N1CCC[C@H]1C(=O)N[C@@H](CC(C)C)C(=O)N[C@@H](Cc1c[n+](CCO)cn1CCCCCCCCc1ccccc1)C(=O)N[C@@H](CO)C(=O)N[C@H](C(N)=O)[C@@H](C)OP(=O)(O)OCOC(=O)C(C)(C)C` [Compound A10], the half-life at 1 μM in data set [1] (setting [4]) worked out at 6.87 h; in data set [2] it was 1.48 h. Moreover, the “hydrolysis product detected after 24 h incubation” value in data set [1] (200 μM peptide in culture medium, 24 h) is given as “^a<5% hydrolysis product could be detected after 24 h incubation”. Besides, the results for the IC50 (in the data set with HeLa cells; in data set [3]) were 57 µM and 0.0093 µM, respectively. The half-life at 200 μM in the data set with Porcine Liver Esterase worked out at 4 h.

One may read the half-life as how long it takes for the measured level to halve. In general, IC50 refers to the concentration needed to halve the response being measured.
